Experimental data taken from patent US20240165244A1 (Prelude Therapeutics Incorporated, priority 2022, published 2024).

Key:
SMARCA2 = molecular target: T1, SMARCA2 (Homo sapiens, UniProt P51531); assay: SMARCA2 HiBiT degradation assay in HeLa cells; type: cell-based; settings: 18 hours, highest concentration 10 μM
T1 construct: SMARCA2-HiBiT knock-in Hela monoclonal cell (CS302366); host or cells: HeLa monoclonal cells with heterozygous HiBiT knock-in at the endogenous SMARCA2 locus
Summary of the method: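 Degradation was read as Nano-Glo HiBiT lytic luminescence (30-60 min, RT) and fitted to curves. Compounds in 3-fold dilutions up to 10 μM were applied for 18 h at 37 °C. Cells were 2500/well monoclonal HeLa with a heterozygous C-terminal HiBiT tag on SMARCA2.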

SMARCA4 = molecular target: T2, SMARCA4 (Homo sapiens, UniProt P51532); assay: SMARCA4 HiBiT degradation assay in HeLa cells; type: cell-based; settings: 18 hours, highest concentration 10 μM
T2 construct: SMARCA4-HiBiT knock-in Hela monoclonal cell (CS3023226); host or cells: HeLa monoclonal cells with heterozygous HiBiT knock-in at the endogenous SMARCA4 locus
Summary of the method: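 HeLa monoclonal cells with HiBiT knocked into SMARCA4 were seeded at 2500 cells/well, dosed with compound and incubated 18 hours at 37° C. HiBiT signal reported remaining SMARCA4 protein, and values came from curve fitting.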

T1 sequence (P51531 whole entry): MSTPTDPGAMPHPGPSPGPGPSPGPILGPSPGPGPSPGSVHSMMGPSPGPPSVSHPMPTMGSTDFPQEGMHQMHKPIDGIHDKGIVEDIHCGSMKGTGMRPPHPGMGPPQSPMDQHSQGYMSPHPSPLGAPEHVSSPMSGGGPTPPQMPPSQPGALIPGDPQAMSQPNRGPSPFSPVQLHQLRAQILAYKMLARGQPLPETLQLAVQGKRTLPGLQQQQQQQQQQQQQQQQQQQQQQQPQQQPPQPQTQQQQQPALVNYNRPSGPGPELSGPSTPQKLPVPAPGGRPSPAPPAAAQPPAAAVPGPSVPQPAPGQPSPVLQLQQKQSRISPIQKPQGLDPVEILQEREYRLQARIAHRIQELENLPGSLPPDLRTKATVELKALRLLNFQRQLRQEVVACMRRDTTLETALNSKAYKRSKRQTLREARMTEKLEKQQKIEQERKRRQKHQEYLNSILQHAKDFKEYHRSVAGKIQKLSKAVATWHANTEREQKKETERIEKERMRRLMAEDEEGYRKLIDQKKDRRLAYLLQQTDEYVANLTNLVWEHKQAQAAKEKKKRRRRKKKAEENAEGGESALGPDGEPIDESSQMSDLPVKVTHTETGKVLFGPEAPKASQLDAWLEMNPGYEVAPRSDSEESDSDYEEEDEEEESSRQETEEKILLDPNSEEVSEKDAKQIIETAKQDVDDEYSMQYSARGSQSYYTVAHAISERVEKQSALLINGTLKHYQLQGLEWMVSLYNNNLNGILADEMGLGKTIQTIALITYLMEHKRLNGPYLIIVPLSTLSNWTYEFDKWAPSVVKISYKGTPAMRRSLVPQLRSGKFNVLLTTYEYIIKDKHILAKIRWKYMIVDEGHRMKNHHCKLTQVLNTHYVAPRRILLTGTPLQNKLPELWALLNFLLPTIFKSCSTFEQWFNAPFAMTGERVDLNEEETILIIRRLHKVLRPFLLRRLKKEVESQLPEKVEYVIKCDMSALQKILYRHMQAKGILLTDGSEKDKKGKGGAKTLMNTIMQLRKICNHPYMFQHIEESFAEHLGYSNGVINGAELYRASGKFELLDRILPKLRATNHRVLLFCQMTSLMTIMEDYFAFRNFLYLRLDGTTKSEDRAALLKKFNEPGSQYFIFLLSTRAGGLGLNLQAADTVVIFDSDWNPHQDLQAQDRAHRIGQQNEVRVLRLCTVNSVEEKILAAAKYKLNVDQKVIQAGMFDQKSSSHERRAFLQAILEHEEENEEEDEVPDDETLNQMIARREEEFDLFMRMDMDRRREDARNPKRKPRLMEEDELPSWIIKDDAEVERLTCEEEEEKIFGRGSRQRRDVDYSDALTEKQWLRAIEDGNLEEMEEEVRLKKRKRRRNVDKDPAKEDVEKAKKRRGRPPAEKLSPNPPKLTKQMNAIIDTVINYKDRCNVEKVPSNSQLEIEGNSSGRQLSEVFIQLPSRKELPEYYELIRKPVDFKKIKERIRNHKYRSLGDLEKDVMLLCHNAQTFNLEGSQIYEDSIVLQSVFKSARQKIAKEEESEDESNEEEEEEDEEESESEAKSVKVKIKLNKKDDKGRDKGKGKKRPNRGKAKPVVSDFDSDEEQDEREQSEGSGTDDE
T2 sequence (P51532 whole entry): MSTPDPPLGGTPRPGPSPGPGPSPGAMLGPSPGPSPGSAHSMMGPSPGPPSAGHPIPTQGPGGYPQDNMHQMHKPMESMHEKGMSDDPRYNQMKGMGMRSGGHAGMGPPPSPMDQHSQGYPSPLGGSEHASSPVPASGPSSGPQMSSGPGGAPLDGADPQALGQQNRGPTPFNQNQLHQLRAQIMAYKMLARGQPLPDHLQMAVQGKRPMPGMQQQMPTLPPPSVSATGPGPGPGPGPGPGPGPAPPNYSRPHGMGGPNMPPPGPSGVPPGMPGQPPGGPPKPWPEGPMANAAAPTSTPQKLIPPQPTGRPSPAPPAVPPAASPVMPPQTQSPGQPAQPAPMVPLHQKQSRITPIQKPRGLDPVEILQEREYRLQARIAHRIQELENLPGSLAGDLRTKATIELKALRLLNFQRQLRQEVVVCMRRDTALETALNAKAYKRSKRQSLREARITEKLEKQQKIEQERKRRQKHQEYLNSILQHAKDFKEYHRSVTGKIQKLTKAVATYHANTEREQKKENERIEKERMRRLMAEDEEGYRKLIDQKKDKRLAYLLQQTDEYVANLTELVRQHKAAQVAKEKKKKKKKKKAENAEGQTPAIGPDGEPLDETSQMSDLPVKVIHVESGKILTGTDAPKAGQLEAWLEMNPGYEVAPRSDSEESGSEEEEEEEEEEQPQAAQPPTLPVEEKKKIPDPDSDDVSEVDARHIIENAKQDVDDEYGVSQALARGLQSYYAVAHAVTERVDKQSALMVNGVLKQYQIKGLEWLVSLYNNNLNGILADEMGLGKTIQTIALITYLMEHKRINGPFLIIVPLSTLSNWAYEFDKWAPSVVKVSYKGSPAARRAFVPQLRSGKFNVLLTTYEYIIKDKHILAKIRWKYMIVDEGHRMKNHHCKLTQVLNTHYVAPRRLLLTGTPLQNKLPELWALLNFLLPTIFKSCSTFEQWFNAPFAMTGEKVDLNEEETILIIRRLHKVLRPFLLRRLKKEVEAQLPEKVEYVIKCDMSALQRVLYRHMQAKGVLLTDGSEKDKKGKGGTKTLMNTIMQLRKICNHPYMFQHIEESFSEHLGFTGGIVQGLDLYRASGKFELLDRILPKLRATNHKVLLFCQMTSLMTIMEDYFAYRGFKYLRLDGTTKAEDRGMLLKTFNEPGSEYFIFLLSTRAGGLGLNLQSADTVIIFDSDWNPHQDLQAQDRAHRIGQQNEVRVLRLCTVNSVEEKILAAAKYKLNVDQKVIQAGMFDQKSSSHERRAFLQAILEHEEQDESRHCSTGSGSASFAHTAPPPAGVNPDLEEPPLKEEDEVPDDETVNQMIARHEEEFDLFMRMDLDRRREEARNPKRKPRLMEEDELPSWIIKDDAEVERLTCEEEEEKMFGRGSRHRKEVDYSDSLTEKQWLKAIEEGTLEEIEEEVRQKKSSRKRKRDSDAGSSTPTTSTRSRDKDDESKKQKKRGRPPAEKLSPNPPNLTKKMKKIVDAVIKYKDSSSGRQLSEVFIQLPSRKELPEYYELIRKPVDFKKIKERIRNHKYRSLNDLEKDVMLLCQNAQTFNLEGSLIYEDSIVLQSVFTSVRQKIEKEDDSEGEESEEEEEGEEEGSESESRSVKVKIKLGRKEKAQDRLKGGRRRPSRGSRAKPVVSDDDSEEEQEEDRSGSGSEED

`Cc1cc(CN2CCC(c3ccc4c(c3)C(=O)N([C@H]3CCC(=O)NC3=O)C4)CC2)ncc1O[C@H]1CN2c3cc(-c4cccc(F)c4O)nnc3NC[C@]2(C(F)F)C1` [Example 92, (S)-3-(6-(1-((5-(((6aS,8R)-6a-(difluoromethyl)-2-(3-fluoro-2-hydroxyphenyl)-5,6,6a,7,8,9-hexahydropyrrolo[1′,2′:4,5]pyrazino[2,3-c]pyridazin-8-yl)oxy)-4-methylpyridin-2-yl)methyl)piperidin-4-yl)-1-oxoisoindolin-2-yl)piperidine-2,6-dione] was tested, and the DC50 (SMARCA2) was under 100 nM, the Dmax (SMARCA2) was over 75% and the DC50 (SMARCA4) was under 100 nM. It also gave a Dmax (SMARCA4) of 50 to 75%.
`Cc1cc(O[C@@H]2C[C@@H]3CNc4nnc(-c5cc(F)cc(Cl)c5O)cc4N3C2)ccc1CN1CCN(c2ccc3c(c2)C(=O)N(C2CCC(=O)NC2=O)C3)CC1` (stereo partly drawn) [Example 19, 3-(6-(4-(4-(((6aR,8R)-2-(3-chloro-5-fluoro-2-hydroxyphenyl)-5,6,6a,7,8,9-hexahydropyrrolo[1′,2′:4,5]pyrazino[2,3-c]pyridazin-8-yl)oxy)-2-methylbenzyl)piperazin-1-yl)-1-oxoisoindolin-2-yl)piperidine-2,6-dione] was tested, and the DC50 (SMARCA2) was under 100 nM, the Dmax (SMARCA2) was over 75% and the DC50 (SMARCA4) was under 100 nM. For the same compound, the Dmax (SMARCA4) was 50 to 75%.
`Cc1cc(O[C@@H]2C[C@H]3CNc4nnc(-c5cccc(F)c5O)cc4N3C2)ccc1CN1CCC(c2ccc3c(c2)C(=O)N(C2CCC(=O)NC2=O)C3)CC1` (stereo partly drawn) [Example 37, 3-(6-(1-(4-(((6aS,8R)-2-(3-fluoro-2-hydroxyphenyl)-5,6,6a,7,8,9-hexahydropyrrolo[1′,2′:4,5]pyrazino[2,3-c]pyridazin-8-yl)oxy)-2-methylbenzyl)piperidin-4-yl)-1-oxoisoindolin-2-yl)piperidine-2,6-dione] showed a DC50 (SMARCA2) of under 100 nM, a Dmax (SMARCA2) of over 75% and a DC50 (SMARCA4) of under 100 nM. It also gave a Dmax (SMARCA4) of over 75%.
For `Cc1nc(CN2CCN(c3ccc4c(c3)C(=O)N([C@H]3CCC(=O)NC3=O)C4)CC2)cnc1O[C@H]1CN2c3cc(-c4cccc(F)c4O)nnc3NC[C@]2(CF)C1` [Example 66, (S)-3-(6-(4-((5-(((6aS,8R)-2-(3-fluoro-2-hydroxyphenyl)-6a-(fluoromethyl)-5,6,6a,7,8,9-hexahydropyrrolo[1′,2′:4,5]pyrazino[2,3-c]pyridazin-8-yl)oxy)-6-methylpyrazin-2-yl)methyl)piperazin-1-yl)-1-oxoisoindolin-2-yl)piperidine-2,6-dione], the DC50 (SMARCA2) was under 100 nM, the Dmax (SMARCA2) was over 75% and the DC50 (SMARCA4) was under 100 nM. The Dmax (SMARCA4) was 50 to 75%.
For `Cc1cc(O[C@H]2CN3c4cc(-c5cccc(F)c5O)nnc4NC[C@@]3(C)C2)ncc1CN1CCN(c2ccc3c(c2)C(=O)N(C2CCC(=O)NC2=O)C3)CC1` (stereo partly drawn) [Example 55, 3-(6-(4-((6-(((6aR,8R)-2-(3-fluoro-2-hydroxyphenyl)-6a-methyl-5,6,6a,7,8,9-hexahydropyrrolo[1′,2′:4,5]pyrazino[2,3-c]pyridazin-8-yl)oxy)-4-methylpyridin-3-yl)methyl)piperazin-1-yl)-1-oxoisoindolin-2-yl)piperidine-2,6-dione], the DC50 (SMARCA2) was under 100 nM, the Dmax (SMARCA2) was over 75% and the DC50 (SMARCA4) was under 100 nM. The Dmax (SMARCA4) was 50 to 75%.
In the case of `Cc1c(CN2CCN(c3ccc4c(c3)C(=O)N(C3CCC(=O)NC3=O)C4)CC2)ccc(O[C@@H]2C[C@@H]3CNc4nnc(-c5cc(F)cc(F)c5O)cc4N3C2)c1C` (stereo partly drawn) [Example 18, 3-(6-(4-(4-(((6aR,8R)-2-(3,5-difluoro-2-hydroxyphenyl)-5,6,6a,7,8,9-hexahydropyrrolo[1′,2′:4,5]pyrazino[2,3-c]pyridazin-8-yl)oxy)-2,3-dimethylbenzyl)piperazin-1-yl)-1-oxoisoindolin-2-yl)piperidine-2,6-dione], the DC50 (SMARCA2) is reported as under 100 nM, the Dmax (SMARCA2) is reported as over 75% and the DC50 (SMARCA4) is reported as under 100 nM. The Dmax (SMARCA4) was over 75%.
`CC[C@@]12CNc3nnc(-c4cccc(F)c4O)cc3N1C[C@H](Oc1ncc(CN3CCC(c4ccc5c(c4)C(=O)N([C@H]4CCC(=O)NC4=O)C5)CC3)c(C)n1)C2` [Example 105, (S)-3-(6-(1-((2-(((6aR,8R)-6a-ethyl-2-(3-fluoro-2-hydroxyphenyl)-5,6,6a, 7,8,9-hexahydropyrrolo[1′,2′:4,5]pyrazino[2,3-c]pyridazin-8-yl)oxy)-4-methylpyrimidin-5-yl)methyl)piperidin-4-yl)-1-oxoisoindolin-2-yl)piperidine-2,6-dione] showed a DC50 (SMARCA2) of under 100 nM, a Dmax (SMARCA2) of over 75% and a DC50 (SMARCA4) of 100 to 1000 nM. For the same compound, the Dmax (SMARCA4) was under 50%.
`CC[C@]12CNc3nnc(-c4cccc(C)c4O)cc3N1C[C@H](Oc1nc(C)c(CN3CCC(c4ccc5c(c4)C(=O)N([C@H]4CCC(=O)NC4=O)C5)CC3)c(C)n1)C2` [Example 96, (S)-3-(6-(1-((2-(((6aS,8R)-6a-ethyl-2-(2-hydroxy-3-methylphenyl)-5,6,6a,7,8,9-hexahydropyrrolo[1′,2′:4,5]pyrazino[2,3-c]pyridazin-8-yl)oxy)-4,6-dimethylpyrimidin-5-yl)methyl)piperidin-4-yl)-1-oxoisoindolin-2-yl)piperidine-2,6-dione] was tested, and the DC50 (SMARCA2) was under 100 nM, the Dmax (SMARCA2) was over 75% and the DC50 (SMARCA4) was 100 to 1000 nM. The Dmax (SMARCA4) was under 50%.
`O=C1CCC(N2Cc3ccc(N4CCN(Cc5ccc(O[C@@H]6C[C@@H]7CNc8nnc(-c9cc(F)cc(F)c9O)cc8N7C6)c(F)c5)CC4)cc3C2=O)C(=O)N1` (stereo partly drawn) [Example 4, 3-(6-(4-(4-(((6aR,8R)-2-(3,5-difluoro-2-hydroxyphenyl)-5,6,6a,7,8,9-hexahydropyrrolo[1′,2′:4,5]pyrazino[2,3-c]pyridazin-8-yl)oxy)-3-fluorobenzyl)piperazin-1-yl)-1-oxoisoindolin-2-yl)piperidine-2,6-dione] showed a DC50 (SMARCA2) of under 100 nM, a Dmax (SMARCA2) of over 75% and a DC50 (SMARCA4) of under 100 nM. The Dmax (SMARCA4) was over 75%.
With `Cc1cc(CN2CCN(c3ccc4c(c3)C(=O)N(C3CCC(=O)NC3=O)C4)CC2)ccc1O[C@@H]1C[C@@H]2CNc3nnc(-c4cc(F)cc(F)c4O)cc3N2C1` (stereo partly drawn) [Example 2, 3-(6-(4-(4-(((6aR,8R)-2-(3,5-difluoro-2-hydroxyphenyl)-5,6,6a,7,8,9-hexahydropyrrolo[1′,2′:4,5]pyrazino[2,3-c]pyridazin-8-yl)oxy)-3-methylbenzyl)piperazin-1-yl)-1-oxoisoindolin-2-yl)piperidine-2,6-dione] the DC50 (SMARCA2) was under 100 nM, the Dmax (SMARCA2) was over 75% and the DC50 (SMARCA4) was under 100 nM. For the same compound, the Dmax (SMARCA4) was over 75%.
In the case of `CC[C@@]12CNc3nnc(-c4cccc(F)c4O)cc3N1C[C@H](Oc1cnc(CN3CCN(c4ccc5c(c4)CN([C@H]4CCC(=O)NC4=O)C5)CC3)c(F)c1)C2` [Example 72, (S)-3-(6-(4-((5-(((6aR,8R)-6a-Ethyl-2-(3-fluoro-2-hydroxyphenyl)-5,6,6a,7,8,9-exahydropyrrolo[1′,2′:4,5]pyrazino[2,3-c]pyridazin-8-yl)oxy)-3-fluoropyridin-2-yl)methyl)piperazin-1-yl)-1-oxoisoindolin-2-yl)piperidine-2,6-dione], the DC50 (SMARCA2) is reported as under 100 nM, the Dmax (SMARCA2) is reported as over 75% and the DC50 (SMARCA4) is reported as 100 to 1000 nM. The Dmax (SMARCA4) was under 50%.
`Cc1cc(O[C@@H]2C[C@H]3CNc4nnc(-c5cccc(F)c5O)cc4N3C2)ccc1CN1CCN(c2ccc3c(c2)C(=O)N(C2CCC(=O)NC2=O)C3)CC1` (stereo partly drawn) [Example 36, 3-(6-(4-(4-(((6aS,8R)-2-(3-fluoro-2-hydroxyphenyl)-5,6,6a,7,8,9-hexahydro-pyrrolo[1′,2′:4,5]pyrazino[2,3-c]pyridazin-8-yl)oxy)-2-methylbenzyl)piperazin-1-yl)-1-oxoisoindolin-2-yl)piperidine-2,6-dione] showed a DC50 (SMARCA2) of under 100 nM, a Dmax (SMARCA2) of over 75% and a DC50 (SMARCA4) of under 100 nM. It also gave a Dmax (SMARCA4) of over 75%.
